Measurements taken from patent publication US9598463B2, “Mucin hypersecretion inhibitors and methods of use” (BIOMARCK PHARMACEUTICALS, LTD., priority 2005, dated 2017).
Marks after values point to notes of the source that are not given here. One block for each compound: values may come before it. Where a SMILES comes first, the peptide text is derived from it. The star is where a group is joined. Myristoyl = CCCCCCCCCCCCCC(=O)*

Assays:
[1] = Qualitative solubility of test peptides in 0.5 N saline; assay type: physicochemical; details: pH 6.5, 20° C. (table title)
How it was run: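 Weighed peptide (1 to 5 mg) titrated with 25 μL aliquots of 0.5 N saline, pH 6.5, at 25° C until dissolution judged visually. Solubility calculated from volume needed; complete dissolution in first aliquot reported as greater than, non-dissolution as less than, the calculated value.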

HBE1 cells = test: PMA-induced mucin hypersecretion in human bronchial epithelial cells (air/liquid interface, MUC5A ELISA); assay type: cell-based; details: for Block of PMA-induced increase in mucin secretion: pretreatment with 25 μM peptide
Description: HBE1 is a papilloma virus-transformed human bronchial epithelial cell line capable of mucin secretion when cultured in air/liquid interface. HBE1 cells were cultured in the air/liquid interface as described previously (Li et al, J. Biol. Chem., volume 276, pp 40982-40990, 2001). Briefly, HBE1 cells were cultured in air/liquid interface by seeding an appropriate number of cells in 12-well Transwell clear culture inserts (Costar, Cambridge, Mass.) that were thinly coated with rat tail collagen, type I (Collaborative Biomedical, Bedford, Mass.). Cells were initially cultured submerged in medium in a humidified 95% air, 5% CO2 environment for 5-7 days until nearly confluent. At that time, the air/liquid interface was created by removing the apical medium and feeding cells basalaterally. Medium was renewed daily thereafter. Cells were cultured for an additional 14 days to allow full differentiation. The accumulated mucin at the apical surface of the cells was removed by washing with phosphate-buffered saline, pH 7.2. To collect the baseline mucin secretion, cells were incubated for 30 min with medium alone and secreted mucin in the apical medium was collected, and quantitated by ELISA. To determine the mucin hypersecretion induced by a mucin secretagogue, cells were exposed to medium containing 0.5 μM phorbol myristate acetate, (PMA) for 30 min. and mucin was collected and quantitated by ELISA. […] Six wells were used for each test peptides and for each control. Secreted mucin in the apical medium was collected and quantitated by sandwich ELISA method using alkaline phosphatase-conjugated mucin (MUC5A) specific antibody (Zymed Laboratories, San Francisco, Calif.).

[2] = test system: methacholine-induced mucin hypersecretion; test: Methacholine-induced mucin hypersecretion in ovalbumin-sensitized mouse model of asthma, BAL mucin ELISA (Balb/C mice); assay type: in vivo; details: for Mucin Secretion % control: peptides at 100 μM; for Mucin Secretion % of control: Table IV, peptide 100 μM
How it was run: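 BP2 or Balb/C mice immunized s.c. twice weekly with 1 μg ovalbumin, aerosol ovalbumin challenge after 14 days, then aerosolized methacholine 72 h later. Anti-MUC5AC ELISA on cell-free BAL, minus non-immune antibody signal, normalized to Bradford protein; 6 mice per group.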

[3] = Solubility in sodium acetate, pH 7; assay type: physicochemical; details: 120 min sodium acetate, pH 7 (so in the source)
[4] = test system: methacholine-induced mucin hypersecretion; test: Duration of action of test peptides in a murine model of asthma; assay type: in vivo; details: Balb/C mice
Excerpt: (§1) Experiments were designed to test whether or not the MANS peptide and other test peptides related thereto inhibit hypersecretion of mucin in murine airway in vivo. The ovalbumin-sensitized mouse model of allergic inflammation and asthma used in these studies was as described by Singer et al. (2004), supra. As a negative control, a control peptide containing an N-terminal myristoyl group and the same amino acids as MANS peptide but arranged in random order (i.e., the random N-terminal sequence, RNS, myristoyl-peptide 232) was tested alongside the proposed active peptides. BP2 mice, aged 6-8 wks, were immunized subcutaneously twice at weekly intervals with 1 μg of ovalbumin. After 14 days of sensitization, the animals were exposed to aerosolized ovalbumin, which causes a pronounced goblet cell hyperplasia after 72 hours. At the 72 hr time point, the secretagogue, methacholine ([…]) was delivered using a Buxco system nebulizer providing a fine aerosol for 90 seconds. Fifteen min prior to the secretagogue challenge, 50 μL of the test peptide, at 3 different concentrations (10 μM, 100 μM, or 140 μM), was administered by intratracheal route. The RNS peptide was tested at the highest dose level only (50 μL of 140 μM solution). […] Each experiment was carried out in 6 mice per point, and each set of experiments was repeated 3 times. To test strain-to-strain variations, the above experiment was repeated in Balb/C mice under similar protocol. Both stimulated and unstimulated mucin secretion, in mice treated with […] sodium acetate (data not shown), were identical to saline control. Following the methacholine challenge, the animals were sacrificed and bronchoalveolar lavage (BAL) performed on 6 animals per group for analysis of secreted mucin.
(§2) Mice were sacrificed by cervical dislocation, followed by rapid exposure of the trachea and insertion of a cannula through a small incision. Bronchoalveolar lavage (BAL) fluid was collected with 0.5 ml followed by 3×1 ml PBS containing PMSF (5 mM), EDTA (5 mM), and DTT (5 mM). BAL fluid was separated into cell-free and cell fractions via brief centrifugation prior to any analyses being performed. The cell-free supernatants were analyzed for the presence of mucin via an ELISA method using anti-mucin antibodies shown to react with mouse mucin. Specifically, a mouse anti-MUC5AC antibody that recognizes the carbohydrate portion of secreted mucin was used in these assays. Data generated from each BAL sample were normalized to total protein as determined by Bradford assay. Mucin content was expressed as the value obtained with the anti-mucin antibody minus that obtained with the non-immune control antibody. All ELISA data were statistically examined using a one-way ANOVA.
Experiments were designed to determine the duration of action of test peptides in a murine model of asthma. As described in Method 1A, Balb/C mice were immunized with ovalbumin. After 14 days, the animals were challenged with aerosolized ovalbumin. After 72 hours the secretagogue, methacholine was delivered by aerosolization. The test peptides ([…] of 100 µM solution) were administered by intratracheal route 30 min, 60 min, or 120 min prior to methacholine challenge. The animals were sacrificed and BAL performed for analysis of secreted mucin The results of this experiment are given in Table VI.

[5] = test system: methacholine-induced mucin hypersecretion; test: Methacholine-induced mucin hypersecretion in ovalbumin-sensitized mouse model of asthma, BAL mucin ELISA (BP2 mice); assay type: in vivo
Excerpt: as §1, §2

nasal mucus secretion = test: Mucus secretion in upper respiratory tract of primates (nasal lavage, ELISA); assay type: in vivo; details: rhesus monkeys; 2.0 mL of 140 μM solution in right nostril; nasal lavage 1 hour after treatment
Excerpt: The purpose of the experiment was to determine the ability of MANS peptide to inhibit mucus secretion in the upper respiratory tract of healthy adult rhesus monkeys. The test used is a standard method for evaluation of nasal secretory activity, and non-human primates typically provide a good correlation to activity in man.
A total of 17 healthy young adult male rhesus monkeys without any prior history of rhinitis were used for the experiment. None of the monkeys had rhinitis before or after the study. The nasal mucus secretion of each monkey was measured in its left nostril prior to any treatment. This value is considered 100% mucus secretion. The monkeys were then randomly divided into the following 4 groups: • Group 1: Normal saline, control (n=3); • Group 2: Sodium acetate, solvent control (n=4); • Group 3: RNS peptide, negative control (n=5); and • Group 4: MANS peptide, test peptide (n=5).
Saline was placed in the left nostril of all 17 animals prior to any treatment. The right nostrils were treated with 2.0 mL of either saline, sodium acetate, RNS peptide or the MANS peptide. Thus, each animal had its own internal control. Nasal lavage was performed on both nostrils of each animal 1 hour after the treatment with the test articles. All lavages were immediately frozen at −80° C. and analyzed for mucus content by ELISA. […]

[6] = Table II, 50 μL intratracheal 15 min before methacholine
[7] = peptide intratracheal 30 min prior to methacholine challenge
[8] = peptide intratracheal 60 min prior to methacholine challenge
[9] = peptide intratracheal 120 min prior to methacholine challenge

- solubility [1]: > 200 mg/mL
SMILES: CC(=O)N[C@@H](C)C(=O)N[C@@H](CCCCN)C(=O)NCC(=O)N[C@@H](CCC(=O)O)C(=O)O [Ac-peptide 219] (Ac-AKGE-OH)
- Mucin secretion level below the unstimulated medium control (HBE1 cells; 25 μM peptide, then 0.5 μM PMA): 20%
- Block of PMA-induced increase in mucin secretion (HBE1 cells; then 0.5 μM PMA): 100%

SMILES: CC(=O)N[C@@H](C)C(=O)N[C@@H](C)C(=O)NCC(=O)N[C@@H](CCC(=O)O)C(=O)O [Ac-peptide 251] (Ac-AAGE-OH)
- solubility [1]: > 200 mg/mL
- Inhibitory effect on PMA-induced increase in mucin secretion (HBE1 cells; peptide concentration not given, 0.5 μM PMA): 6%

SMILES: CCCCCCCCCCCCCC(=O)O[C@@H]1[C@@H](C)[C@@]2(O)[C@@H](C=C(CO)C[C@]3(O)C(=O)C(C)=C[C@@H]23)[C@@H]2C(C)(C)[C@]12OC(C)=O [PMA, phorbol myristate acetate, reference compound]
- Increase in mucin secretion (HBE1 cells; 0.5 μM PMA, 30 min): 20%

- solubility [1]: < 5 mg/mL
- Solubility in sodium acetate [3]: freely soluble
SMILES: CCCCCCCCCCCCCC(=O)NCC(=O)N[C@@H](C)C(=O)N[C@@H](CCC(N)=O)C(=O)N[C@@H](Cc1ccccc1)C(=O)N[C@@H](CO)C(=O)N[C@@H](CCCCN)C(=O)N[C@H](C(=O)N[C@@H](C)C(=O)N[C@@H](C)C(=O)N[C@@H](CCCCN)C(=O)NCC(=O)N[C@@H](CCC(=O)O)C(=O)N[C@@H](C)C(=O)N[C@@H](C)C(=O)N[C@@H](C)C(=O)N[C@@H](CCC(=O)O)C(=O)N[C@@H](CCCNC(=N)N)C(=O)N1CCC[C@H]1C(=O)NCC(=O)N[C@@H](CCC(=O)O)C(=O)N[C@@H](C)C(=O)N[C@@H](C)C(=O)N[C@H](C(=O)N[C@@H](C)C(=O)O)C(C)C)[C@@H](C)O [myr-peptide 1, reference compound] (Myristoyl-GAQFSKTAAKGEAAAERPGEAAVA-OH)
- Mucin Secretion % control [2, 6]: 33.8 % control
- Mucin Secretion % control ([2]; Table III): 40 % control
- Mucin Secretion % of control [2]: 29** % of control
- Duration of action, mucin secretion (% of Control) [4, 7]: 7 % of Control
- Duration of action, mucin secretion (% of Control) [4, 8]: 44 % of Control
- Duration of action, mucin secretion (% of Control) [4, 9]: 50 % of Control
- Mucin Secretion % of control ([5]; peptide 10 μM): 35 % of Control
- Mucin Secretion % of control ([5]; peptide 100 μM): 12 % of Control
- Mucin Secretion % of control ([5]; peptide 140 μM): 8 % of Control
- Inhibition of mucus secretion (nasal mucus secretion): ~75%
- Block of PMA-induced increase in mucin secretion (HBE1 cells; then 0.5 μM PMA): 100%

- solubility [1]: > 15 mg/mL
- Solubility in sodium acetate [3]: freely soluble
SMILES: CCCCCCCCCCCCCC(=O)NCC(=O)N[C@H](C(=O)N[C@@H](C)C(=O)N1CCC[C@H]1C(=O)N[C@@H](C)C(=O)N[C@@H](C)C(=O)N[C@@H](CCC(=O)O)C(=O)NCC(=O)N[C@@H](C)C(=O)NCC(=O)N[C@@H](C)C(=O)N[C@@H](CCC(=O)O)C(=O)N[C@H](C(=O)N[C@@H](CCCCN)C(=O)N[C@@H](CCCNC(=N)N)C(=O)N[C@@H](C)C(=O)N[C@@H](CO)C(=O)N[C@@H](C)C(=O)N[C@@H](CCC(=O)O)C(=O)N[C@@H](C)C(=O)N[C@@H](CCCCN)C(=O)N[C@@H](CCC(N)=O)C(=O)N[C@@H](C)C(=O)N[C@@H](Cc1ccccc1)C(=O)O)C(C)C)[C@@H](C)O [myr-peptide 232, reference compound] (Myristoyl-GTAPAAEGAGAEVKRASAEAKQAF-OH)
- Mucin Secretion % control [2, 6]: 96 % control
- Mucin Secretion % control ([2]; Table III): 81** % control
- Mucin Secretion % of control [2]: 108 % of control
- Duration of action, mucin secretion (% of Control) [4, 7]: 100 % of Control
- Duration of action, mucin secretion (% of Control) [4, 8]: 100 % of Control
- Duration of action, mucin secretion (% of Control) [4, 9]: 100 % of Control
- Mucin Secretion % of control ([5]; peptide 100 μM): 100 % of Control
- Mucin Secretion % of control ([5]; peptide 140 μM): 100 % of Control
- Inhibition of mucus secretion (nasal mucus secretion): did not have any effect
